Source: publication PMC9237828, “Chemically Tuning Resveratrol for the Effective Killing of Gram-Positive Pathogens” (Journal of Natural Products, 2022)
Converted amounts (≈) assume the structure as drawn. Where two headings read alike, the source gives them in different places. Non-standard residues stand in square brackets, D forms with d. Residues, ends and D or L forms follow the SMILES beside them. Orn = NCCC[C@H](N)C(=O)O

What was measured:
E. faecalis LMG16216 = assay: microbe, parasite or virus in culture; type: cell-based, Enterococcus faecalis; conditions: Enterococcus faecalis, LMG16216, 20 h, read-out: Minimal Inhibition Concentration (MIC) E. faecalis LMG16216
E. faecium LMG16003 = assay: microbe, parasite or virus in culture; type: cell-based; conditions: Enterococcus faecium, LMG16003, 20 h, read-out: Minimal Inhibition Concentration (MIC) E. faecium LMG16003
E. faecium LMG11423 = assay: microbe, parasite or virus in culture; type: cell-based; conditions: Enterococcus faecium, LMG11423, 20 h, read-out: Minimal Inhibition Concentration (MIC) E. faecium LMG11423
E. faecalis V583 = assay: microbe, parasite or virus in culture; type: cell-based, Enterococcus faecalis; conditions: Enterococcus faecalis, V583, 20 h, read-out: Minimal Inhibition Concentration (MIC) E. faecalis V583
E. faecalis LMG08222 = assay: microbe, parasite or virus in culture; type: cell-based, Enterococcus faecalis; conditions: Enterococcus faecalis, LMG08222, 20 h, read-out: Minimal Inhibition Concentration (MIC) E. faecalis LMG08222
in vitro = conditions: human
S.aureus LMG15975 = assay: microbe, parasite or virus in culture; type: cell-based, Staphylococcus aureus; conditions: Staphylococcus aureus, LMG15975, 20 h, read-out: Minimal Inhibition Concentration (MIC) S.aureus LMG15975
B. cereus ATCC10987 [1] = assay: microbe, parasite or virus in culture; type: cell-based, Bacillus cereus; conditions: Bacillus cereus, ATCC10987, 20 h, read-out: Minimal Inhibition Concentration (MIC) B. cereus ATCC10987
[2] = tested on: panel of aerobic and anaerobic Gram-positive bacteria; assay: organism not typed; type: cell-based
C. botulinum CECT551 = assay: microbe, parasite or virus in culture; type: cell-based; conditions: Clostridium botulinum, CECT551, 24 h, read-out: Minimal Inhibition Concentration (MIC) C. botulinum CECT551
C. perfringens CECT376 = assay: microbe, parasite or virus in culture; type: cell-based; conditions: Clostridium perfringens, CECT376, 24 h, read-out: Minimal Inhibition Concentration (MIC) C. perfringens CECT376
S.aureus LMG10147 = assay: microbe, parasite or virus in culture; type: cell-based, Staphylococcus aureus; conditions: Staphylococcus aureus, LMG10147, 20 h, read-out: Minimal Inhibition Concentration (MIC) S.aureus LMG10147
B. cereus ATCC14579 = assay: microbe, parasite or virus in culture; type: cell-based, Bacillus cereus; conditions: Bacillus cereus, ATCC14579, 20 h, read-out: Minimal Inhibition Concentration (MIC) B. cereus ATCC14579
C. difficile CECT531 = assay: microbe, parasite or virus in culture; type: cell-based, Clostridioides difficile; conditions: Clostridioides difficile, CECT531, 24 h, read-out: Minimal Inhibition Concentration (MIC) C. difficile CECT531
S.aureus LMG8224 = assay: microbe, parasite or virus in culture; type: cell-based, Staphylococcus aureus; conditions: Staphylococcus aureus, LMG8224, 20 h, read-out: Minimal Inhibition Concentration (MIC) S.aureus LMG8224
C. tetani CECT4629 = assay: microbe, parasite or virus in culture; type: cell-based; conditions: Clostridium tetani, CECT4629, 24 h, read-out: Minimal Inhibition Concentration (MIC) C. tetani CECT4629
C. beijerinckii B504 = assay: MIC test, anaerobes; type: cell-based
Description: (§1) The resveratrol derivatives were serially diluted in cMHB (BD Difco) in 96-well microplates. Plates were then inoculated with the indicator bacteria at a final concentration of 5 × 10^5 CFU/mL and incubated at 37 °C for 20 h. In the case of the anaerobic bacteria (Clostridium and Clostridioides), the test was performed following the recommendation of CLSI for anaerobes[77] but using RCM medium instead of cMHB. The cultures were cultivated inside an anaerobic chamber at 37 °C for 24 h. All the tests were performed in triplicate.

C. ihumii AP5 = assay: MIC test, anaerobes; type: cell-based
Description: as §1

B. cereus ATCC10987 [3] = assay: Membrane potential assay DiSC3(5); conditions: 2×, 1×, and 0.5× the MIC
E. coli LMG8224 = assay: Outer membrane permeabilization test (MIC with or without L-11 peptide)

Row | Compound | MIC (E. faecalis LMG16216) [µM] | MIC (E. faecium LMG16003) [µM] | MIC (E. faecium LMG11423) [µM] | MIC (E. faecalis V583) [µM] | MIC (E. faecalis LMG08222) [µM] | MIC (S.aureus LMG15975) [µM] | MIC (B. cereus ATCC10987 [1]) [µM] | MIC (C. botulinum CECT551) [µM] | MIC (C. perfringens CECT376) [µM] | MIC (S.aureus LMG10147) [µM] | MIC (B. cereus ATCC14579) [µM] | MIC (C. difficile CECT531) [µM] | MIC (S.aureus LMG8224) [µM] | MIC (C. tetani CECT4629) [µM] | further results
1 | CCCCCCCCCCCCCCCCCC(=O)OC[C@H]1O[C@@H](Oc2cc(O)cc(/C=C/c3ccc(O)cc3)c2)[C@H](O)[C@@H](O)[C@@H]1O [compound 6, piceid stearate] | 128 (≈ 84.1 µg/mL) | 2.6 ± 0.6 (≈ 1.71 µg/mL) | 1 (≈ 0.657 µg/mL) | 128 (≈ 84.1 µg/mL) | 16 (≈ 10.5 µg/mL) | – | – | – | – | – | – | – | – | – | –
2 | CC[Si](CC)(CC)Oc1ccc(/C=C/c2cc(O)cc(O)c2)cc1 [compound 31] | – | – | – | – | – | – | – | – | – | – | – | – | – | – | IC50 (in vitro): 32.1 ± 0.9 µM
3 | CCCCOc1ccc(/C=C/c2cc(OS(=O)(=O)O)cc(OS(=O)(=O)O)c2)cc1 [compound 14, 4′-butyl-3,5-disulfate resveratrol] | 16 (≈ 7.11 µg/mL) | 64 (≈ 28.4 µg/mL) | 32 (≈ 14.2 µg/mL) | 64 (≈ 28.4 µg/mL) | 32 (≈ 14.2 µg/mL) | 32 (≈ 14.2 µg/mL) | 128 (≈ 56.9 µg/mL) | 21.3 ± 5.3 (≈ 9.47 µg/mL) | 32 (≈ 14.2 µg/mL) | 32 (≈ 14.2 µg/mL) | 128 (≈ 56.9 µg/mL) | 32 (≈ 14.2 µg/mL) | 32 (≈ 14.2 µg/mL) | 16 (≈ 7.11 µg/mL) | antibacterial activity against the Gram-positive panel [2]: active against all Gram-positive bacterial strains examined; MIC (C. beijerinckii B504; Clostridium beijerinckii, B504, 24 h; read-out: Minimal Inhibition Concentration (MIC) C. beijerinckii B504): 16 µM (≈ 7.11 µg/mL); MIC (C. ihumii AP5; 24 h; read-out: Minimal Inhibition Concentration (MIC) C. ihumii AP5): 32 µM (≈ 14.2 µg/mL)
4 | CC(C)C[C@@H]1NC(=O)[C@H](CCCN)NC(=O)[C@H](C(C)C)NC(=O)[C@@H]2CCCN2C(=O)[C@@H](Cc2ccccc2)NC(=O)[C@H](CC(C)C)NC(=O)[C@H](CCCN)NC(=O)[C@H](C(C)C)NC(=O)[C@@H]2CCCN2C(=O)[C@@H](Cc2ccccc2)NC1=O [gramicidin S, Gramicidin S] (cyclo(V[Orn]L[dF]PV[Orn]L[dF]P)) | – | – | – | – | – | – | – | – | – | – | – | – | – | – | membrane potential change (DiSC3(5)) (B. cereus ATCC10987 [3]): induced a strong membrane depolarization
5 | CC(C)[Si](Oc1cc(/C=C/c2ccc(OS(=O)(=O)O)cc2)cc(OS(=O)(=O)O)c1)(C(C)C)C(C)C [compound 35, 3,4′-Disulfate-5-triisopropylsilyl resveratrol] | 8 (≈ 4.36 µg/mL) | 13.3 ± 2.6 (≈ 7.24 µg/mL) | 16 (≈ 8.72 µg/mL) | 16 (≈ 8.72 µg/mL) | 13.3 ± 2.6 (≈ 7.24 µg/mL) | 16 (≈ 8.72 µg/mL) | 16 (≈ 8.72 µg/mL) | 64 (≈ 34.9 µg/mL) | 64 (≈ 34.9 µg/mL) | 21.3 ± 5.3 (≈ 11.6 µg/mL) | 21.3 ± 5.3 (≈ 11.6 µg/mL) | 32 (≈ 17.4 µg/mL) | 13.3 ± 2.6 (≈ 7.24 µg/mL) | 64 (≈ 34.9 µg/mL) | MIC (C. beijerinckii B504; Clostridium beijerinckii, B504, 24 h, read-out: Minimal Inhibition Concentration (MIC) C. beijerinckii B504): 64 µM (≈ 34.9 µg/mL); MIC (C. ihumii AP5; 24 h, read-out: Minimal Inhibition Concentration (MIC) C. ihumii AP5): 64 µM (≈ 34.9 µg/mL); MIC (E. coli LMG8224; Escherichia coli, LMG8224, read-out: MIC (μM) L-11 + 0 μM): > 128 µM; MIC (μM) L-11 + 4 μM (E. coli LMG8224; presence of 4 μM L-11 outer-membrane-perturbing peptide): 21.6 ± 5.3 µM
6 | 3-triethylsilyl resveratrol [compound 20] | – | – | – | – | – | – | – | – | – | – | – | – | – | – | IC50 (MRC5 cells): 21.3 ± 5.9 µM
